In US20090238852A1, “METHODS FOR CONTROLLING INTRACELLULAR CALCIUM LEVELS ASSOCIATED WITH AN ISCHEMIC EVENT” (University of Utah Research Foundation, priority 2008, published 2009):

Key:
[1] = test system: rabbit ventricular myocytes; assay: Intracellular calcium [Ca^++]i in ventricular myocytes during paced metabolic ischemia (PMI), Fluo-3 flow cytometry; format: cell-based; settings: n = 7
Text: Consequently, it prevents intracellular sodium overload and subsequent reverse mode operation of the sodium-calcium exchanger. The effect of 2-O, 3-O desulfated heparin on accumulation of intracellular Ca^++ during ischemia was studied in an adult rabbit ventricular myocyte model previously reported (Boston D R, et al. J Pharmacol Exp Ther 285:716-723, 1998; Li F, et al. J Mol Cell Cardiol 33:2145-2155, 2001). Isolated cardiomyocytes have been validated as reliable models of ischemia (Diaz, R J, Wilson G J. Cardiovasc Res 70:286-296, 2006).
To produce the model, hearts are removed from albino rabbits (2-3 kg) anesthetized with sodium pentobarbital (65 mg/kg IV). The heart was immediately attached to an aorta cannula. Continuous perfusion of the coronary arteries at 37° C. by a pump (Masterflex, Cole-Parmer Instrument Co., Chicago, Ill.) was initiated at a perfusion pressure of 60 mm Hg. The heart was first perfused with nominally Ca^++-free modified Krebs-Ringer bicarbonate buffered solution (MKRBB, pH 7.40, containing in mmol/L: NaCl 126, KCl 4.4, […], MgCl2 1.0, HEPES 24, probenecid 0.5 and glucose 5) for 10 min, immediately followed by 15-25 min of recirculating perfusion with the same solutions containing 0.3 mg/ml collagenase (Type 2, Worthington Biochemical, Freehold, N.J.), 0.4 mg/mL hyaluronidase (Type-S, Sigma-Aldrich, St. Louis, Mo.) and 50 μmol/L CaCl2. The heart was then detached from the cannula, and the left ventricle was minced and transferred to a 50 mL conical tube with the same solution containing 0.24 mg/mL collagenase, 0.02 mg/mL trypsin and 50 μmol/L Ca^++ for a second digestion. The minced tissue was continuously agitated by gassing the solution with 5% CO2 and 95% O2 to help release isolated myocytes. The resulting supernatant was transferred to another conical tube with the same volume of the same solution containing 0.03 mg/mL of trypsin inhibitor (Sigma-Aldrich). The cell suspension was centrifuged at 5×g for 5 minutes. The supernatant was discarded and cells were resuspended in solution with a higher Ca^++ concentration (200 μmol/L) and incubated in a CO2 incubator (5% CO2, 28° C.) to settle down cells by gravity for 10 min. The same procedure was repeated twice to bring up the Ca^++ concentration slowly (500, then 1000 μmol/L). Calcium step-up solutions were made from MKRBB with 2% albumin, 50 μmol/L CaCl2 mixed with the appropriate amount of minimum essential medium (MEM, Gibco Laboratories, Grand Island, N.Y.). At the end of isolation, cells were filtered with a […] to avoid cell clumping during flow cytometry studies. The yield of rod-shaped viable myocytes averaged 50%. Cells were used for experiments within 4 hours after dissociation.
In these studies, intracellular calcium concentration [Ca^++]i was measured by flow cytometry. Measurement of isolated mouse and rabbit ventricular myocyte [Ca^2+]i and [Na^+]i by flow cytometry has been described (Zhang et al., J. Cardiovasc. Pharmacol. 51: 443-449 (2008); Li et al., J. Mol. Cell. Cardiol. 33: 2145-2155 (2001)). [Ca^++]i was measured with the Ca^++ sensitive fluorescent probe, Fluo 3-AM (Molecular Probes, Eugene, Oreg.), using a FACScan (Becton-Dickinson, MA). The cells were exposed to 4 μmol/L Fluo-3 AM for 30 min at 37° C. The cells were then separated into aliquots. After 40 min of wash, the cells were exposed to paced metabolic ischemia (MI) for 45 min at 37° C. Metabolic ischemia was accomplished by incubating cells in a glucose-free MKRBB solution (pH 7.40) containing 2 mmol/L sodium cyanide (NaCN) to impair mitochondrial and glycolytic generation of ATP. To reproduce the situation in the beating ischemic heart, during the period of metabolic ischemia, myocytes were placed in a 5-well chamber with equal volumes of myocyte suspensions from the same heart dissociation placed in each well. The chamber was water bathed to maintain temperature at 37° C. and bubbled with 5% CO2 in air to keep myocytes in suspension. […]

[2] = test system: NCE; settings: cited from earlier work
[3] = test system: rabbit ventricular myocytes; assay: [Ca^++]i during paced aerobic metabolism (PH) with the Na^+ channel opener ATX; format: cell-based; settings: PH + ATX 20 nmol/L; n = 7; PH alone 406.8 ± 15.9
Protocol: (§1) In these studies, intracellular calcium concentration [Ca^++]i was measured by flow cytometry. Measurement of isolated mouse and rabbit ventricular myocyte [Ca^2+]i and [Na^+]i by flow cytometry has been described (Zhang et al., J. Cardiovasc. Pharmacol. 51: 443-449 (2008); Li et al., J. Mol. Cell. Cardiol. 33: 2145-2155 (2001)). [Ca^++]i was measured with the Ca^++ sensitive fluorescent probe, Fluo 3-AM (Molecular Probes, Eugene, Oreg.), using a FACScan (Becton-Dickinson, MA). The cells were exposed to 4 μmol/L Fluo-3 AM for 30 min at 37° C. The cells were then separated into aliquots. After 40 min of wash, the cells were exposed to paced metabolic ischemia (MI) for 45 min at 37° C. Metabolic ischemia was accomplished by incubating cells in a glucose-free MKRBB solution (pH 7.40) containing 2 mmol/L sodium cyanide (NaCN) to impair mitochondrial and glycolytic generation of ATP. To reproduce the situation in the beating ischemic heart, during the period of metabolic ischemia, myocytes were placed in a 5-well chamber with equal volumes of myocyte suspensions from the same heart dissociation placed in each well. The chamber was water bathed to maintain temperature at 37° C. and bubbled with 5% CO2 in air to keep myocytes in suspension. […] Approximately 2×10^3 myocytes were analyzed to calculate average emission fluorescence intensity in each sample. […] Only those cells with low fluorescence intensity at 670 nm (PI-negative cells or viable cells) were included in the comparative analysis of [Ca^++]i. The sample [Ca^2+]i values were calculated by Mn^2+ quenching (Sugishita et al, 2001) and [Na^+]i values by comparison with a standard curve of varied [Na^+]i versus Na Green fluorescence. […] Results were expressed as means±SEM. […]
To further examine the role of ODSH as a Na^+ inhibitor, additional experiments were performed in which the Na^+ channel opener amenone toxin II (ATX) was added to medium in a final concentration of 20 nmol/L to open the cardiac myocyte membrane Na^+ channel. […] Intracellular calcium concentration [Ca^++]i was monitored as earlier. […]

[4] = test system: rabbit ventricular myocytes; assay: [Na^+]i in paced myocytes exposed to ATX, no metabolic inhibition; format: cell-based; settings: ATX 10 nM, HEPES + pacing; FIG. 9; n = 6
Protocol: as §1, with “After 40 min of wash, the cells were exposed to paced metabolic ischemia (MI) for 45 min at 37° C.” left out, “suspension. Each well was fitted with platinum sheet electrodes on both sides for field stimulation. One chamber was constructed with a glass coverslip bottom so that myocytes can be observed microscopically to assess capture threshold. Placing electrodes were connected in series to a constant current pulse generator that delivers a 0.2 ampere pulse at 0.5 Hz.” for “suspension.”

CS(=O)(=O)O.N=C(N)SCCc1ccc(OCc2ccc([N+](=O)[O-])cc2)cc1 [KBR, 2-[2-[4-(4-nitrobenzyloxy)phenyl]ethyl]isothiourea metanesulfonate, reference compound]
[Ca^++]i ([1]; Table 6: PMI + KBR 10 μmol/L, PMI alone 985.5 ± 42.7): 666.5 ± 50.7 nM | selectivity for reserve mode versus forward mode ([2]; Iwamoto 1996): 50 fold

CCOc1ccc(Oc2ccc(OCc3cc(F)ccc3F)cc2)c(N)c1 [SEA0400, 2-[4-[(2,5-difluorophenyl)methoxy]-phenoxy]-5-ethoxyaniline]
selectivity for the reverse versus forward mode of the NCE ([2]; Matsuda 2001): lacks selectivity for the reverse versus forward mode of the NCE

COc1ccccc1OCC(O)CN1CCN(CC(=O)Nc2c(C)cccc2C)CC1 (stereo not drawn) [ranolazine, reference compound]
effect on [Ca^2+]i during P-MI ([1]; each alone: ODSH 100 μg/ml, ranolazine 10 μM, FIG. 8): reduced [Ca^2+]i to a similar degree

ATX: Na^+ channel opener; selective activator of INa,L [reference compound]
[Ca^++]i [3]: 529.1 ± 29.3 nM | effect on [Na^+]i in paced myocytes [4]: substantial increase in [Na^+]i
